Source: PubChem BioAssay (NCI)
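The concentration for 50% growth inhibition is given as GI50. TGI denotes the concentration required for complete inhibition of growth.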

How the values were obtained:
Assay in all cases: inhibition of tumour cell growth, NCI panel, 384-well format
NCI-H226 lung = tested on: NCI-H226 lung
NCI-H23 lung = tested on: NCI-H23 lung
NCI-H322M lung = tested on: NCI-H322M lung
NCI-H460 NSCLC = tested on: NCI-H460 NSCLC
NCI-H522 lung = tested on: NCI-H522 lung
NCI/ADR-RES ovarian = tested on: NCI/ADR-RES ovarian
OVCAR-3 ovarian = tested on: OVCAR-3 ovarian
OVCAR-4 ovarian = tested on: OVCAR-4 ovarian
OVCAR-5 ovarian = tested on: OVCAR-5 ovarian
OVCAR-8 ovarian = tested on: OVCAR-8 ovarian
PC-3 prostate = tested on: PC-3 prostate
RPMI-8226 leukemia = tested on: RPMI-8226 leukemia
RXF 393 renal = tested on: RXF 393 renal
SF-268 CNS = tested on: SF-268 CNS
SF-295 CNS = tested on: SF-295 CNS
SF-539 CNS = tested on: SF-539 CNS
SK-MEL-28 melanoma = tested on: SK-MEL-28 melanoma
SK-MEL-5 melanoma = tested on: SK-MEL-5 melanoma
SK-OV-3 ovarian = tested on: SK-OV-3 ovarian
SN12C renal = tested on: SN12C renal
SNB-19 CNS = tested on: SNB-19 CNS
SNB-75 CNS = tested on: SNB-75 CNS
SW-620 colon = tested on: SW-620 colon
T-47D breast = tested on: T-47D breast
TK-10 renal = tested on: TK-10 renal
U251 glioblastoma = tested on: U251 glioblastoma
UACC-257 melanoma = tested on: UACC-257 melanoma
UACC-62 melanoma = tested on: UACC-62 melanoma
UO-31 renal = tested on: UO-31 renal

## CCCCCCCC/C=C/CCCCCCCC(=O)OC[C@H]1O[C@@H](n2ccc(N)nc2=O)C(F)(F)[C@@H]1O
NCI-H226 lung
  GI50: 24.8 nM
  TGI: 83.2 nM
NCI-H23 lung
  GI50: < 10 nM
  TGI: < 10 nM
NCI-H322M lung
  GI50: 1310 nM
  TGI: > 100000 nM
NCI-H460 NSCLC
  GI50: < 10 nM
  TGI: < 10 nM
NCI-H522 lung
  GI50: < 10 nM
  TGI: 2220 nM
NCI/ADR-RES ovarian
  GI50: < 10 nM
  TGI: < 10 nM
OVCAR-3 ovarian
  GI50: < 10 nM
  TGI: 16700 nM
OVCAR-4 ovarian
  GI50: 38800 nM
  TGI: > 100000 nM
OVCAR-5 ovarian
  GI50: < 10 nM
  TGI: > 100000 nM
OVCAR-8 ovarian
  GI50: < 10 nM
  TGI: < 10 nM
PC-3 prostate
  GI50: 2050 nM
  TGI: 35600 nM
RPMI-8226 leukemia
  GI50: < 10 nM
  TGI: < 10 nM
RXF 393 renal
  GI50: < 10 nM
  TGI: 90.2 nM
SF-268 CNS
  GI50: < 10 nM
  TGI: < 10 nM
SF-295 CNS
  GI50: < 10 nM
  TGI: 18.5 nM
SF-539 CNS
  GI50: < 10 nM
  TGI: < 10 nM
SK-MEL-28 melanoma
  GI50: < 10 nM
  TGI: 51500 nM
SK-MEL-5 melanoma
  GI50: < 10 nM
  TGI: 24.7 nM
SK-OV-3 ovarian
  GI50: < 10 nM
  TGI: 2420 nM
SN12C renal
  GI50: < 10 nM
  TGI: 39.9 nM
SNB-19 CNS
  GI50: < 10 nM
  TGI: 518 nM
SNB-75 CNS
  GI50: < 10 nM
  TGI: 49.2 nM
SW-620 colon
  GI50: < 10 nM
  TGI: 46000 nM
T-47D breast
  GI50: < 10 nM
  TGI: 1560 nM
TK-10 renal
  GI50: > 100000 nM
  TGI: > 100000 nM
U251 glioblastoma
  GI50: < 10 nM
  TGI: < 10 nM
UACC-257 melanoma
  GI50: < 10 nM
  TGI: 92 nM
UACC-62 melanoma
  GI50: < 10 nM
  TGI: < 10 nM
UO-31 renal
  GI50: < 10 nM
  TGI: < 10 nM
